The nature of assay [1]: Ratio between ED50 of compound and ED50 of taxol. It is filed as functional.
Assay [2] has as its target Tubulin alpha chain (Sus scrofa) (UniProt P02550). The experiment in a line: Tested for the reduction of the supernatant protein concentration by tubulin assembly assay. The format is functional.

The values that follow come from ChEMBL document CHEMBL1127456, “Structure-activity studies of antitumor taxanes: synthesis of novel C-13 side chain homologated taxol and taxotere analogs” (J Med Chem, 1994).

Chain of Tubulin alpha chain (Sus scrofa) (P02550 whole entry, looked up): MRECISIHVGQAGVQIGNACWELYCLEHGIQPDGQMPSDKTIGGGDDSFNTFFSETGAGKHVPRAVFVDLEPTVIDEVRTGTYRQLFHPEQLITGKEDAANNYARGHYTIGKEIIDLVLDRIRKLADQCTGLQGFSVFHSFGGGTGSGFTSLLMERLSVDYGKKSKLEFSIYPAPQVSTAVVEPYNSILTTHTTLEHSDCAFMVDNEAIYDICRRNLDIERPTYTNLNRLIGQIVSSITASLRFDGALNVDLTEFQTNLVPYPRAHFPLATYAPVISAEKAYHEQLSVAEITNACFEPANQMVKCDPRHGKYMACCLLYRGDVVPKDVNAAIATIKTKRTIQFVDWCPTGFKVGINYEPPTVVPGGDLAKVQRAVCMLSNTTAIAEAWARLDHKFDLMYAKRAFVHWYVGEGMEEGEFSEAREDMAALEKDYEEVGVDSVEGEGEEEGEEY

On to `CC(=O)O[C@@]12CO[C@@H]1C[C@H](O)[C@@]1(C)C(=O)[C@H](O)C3=C(C)[C@@H](OC(=O)[C@H](O)[C@@H](NC(=O)OC(C)(C)C)c4ccccc4)C[C@@](O)([C@@H](OC(=O)c4ccccc4)[C@H]21)C3(C)C`, for which the Ratio in assay [1] was more than 27. Besides, the ED50 in assay [2] was more than 25 µM.
With `CC(=O)O[C@@]12CO[C@@H]1C[C@H](O)[C@@]1(C)C(=O)[C@H](O)C3=C(C)[C@@H](OC(=O)[C@H](O)C(NC(=O)c4ccccc4)c4ccccc4)C[C@@](O)([C@@H](OC(=O)c4ccccc4)C12)C3(C)C` (stereo partly specified), in assay [1], the Ratio is more than 27. The molecule further registered an ED50 in assay [2] of more than 25 µM.
For the molecule `CC(=O)O[C@H]1C(=O)[C@@]2(C)[C@H]([C@H](OC(=O)c3ccccc3)[C@]3(O)C[C@H](OC(=O)[C@H](O)[C@@H](NC(=O)c4ccccc4)c4ccccc4)C(C)=C1C3(C)C)[C@]1(OC(C)=O)CO[C@@H]1C[C@@H]2O`, the Ratio in assay [1] was determined as 1. The ED50 in assay [2] was found to be 0.93 µM.
